US12421279B2, “Cyclic peptide antiviral agents and methods using same” (priority 2016, dated 2025)
Values joined by “and” are separate entries in the source; they are usually repeats but may differ in a detail not shown here. Equal entries are not always repeated. Where two headings read alike, the source gives them in different places. *1 amine or outer side, *2 acyl side, *3 side chain or, on linkers, in order; H or OH if unused. Where a SMILES comes first, the peptide text is derived from it. Bridges are numbered along the chain shown (N, C = ends). [ ]: non-standard residue; d: D form. X2 = O=C([C@@H]1C[C@H](n2cc([C]34[CH]5[CH]6[CH]7[CH]3[Fe]6754389%10[CH]4[CH]3[CH]8[CH]9[CH]4%10)nn2)CN1[*:1])[*:2]; X17 = O=C([C@@H]1C[C@H](n2cc(C3=CC=C[CH]3[Fe][CH]3C=CC=C3)nn2)CN1[*:1])[*:2]; X15 = CC(C)(C)c1ccc(-c2cn([C@H]3C[C@@H](C(=O)[*:2])N([*:1])C3)nn2)cc1; X18 = O=C([C@@H]1C[C@H](n2cc(-c3ccc(-c4ccccc4)cc3)nn2)CN1[*:1])[*:2]; X1 = O=C([C@@H]1C[C@H](n2cc(-c3ccc(-c4cccs4)cc3)nn2)CN1[*:1])[*:2]; X16 = CC(C)c1ccc(-c2cn([C@H]3C[C@@H](C(=O)[*:2])N([*:1])C3)nn2)cc1; X11 = Cc1ccc(Cc2cn([C@H]3C[C@@H](C(=O)[*:2])N([*:1])C3)nn2)c(C)c1; X19 = Cc1cc(C)cc(Cc2cn([C@H]3C[C@@H](C(=O)[*:2])N([*:1])C3)nn2)c1; X4 = O=C([C@@H]1C[C@H](n2cc(C3C4CC5CC(C4)CC3C5)nn2)CN1[*:1])[*:2]; X6 = O=C([C@@H]1C[C@H](n2cc(-c3ccc(-c4cccs4)s3)nn2)CN1[*:1])[*:2]; X12 = O=C([C@@H]1C[C@H](n2cc(Cc3ccc(Cl)c(F)c3)nn2)CN1[*:1])[*:2]; X13 = O=C([C@@H]1C[C@H](n2cc(-c3cc4ccccc4cn3)nn2)CN1[*:1])[*:2]; X20 = Cc1ccc(Cc2cn([C@H]3C[C@@H](C(=O)[*:2])N([*:1])C3)nn2)cc1C; X10 = Cc1ccc(Cc2cn([C@H]3C[C@@H](C(=O)[*:2])N([*:1])C3)nn2)cc1; X9 = CCc1ccc(-c2cn([C@H]3C[C@@H](C(=O)[*:2])N([*:1])C3)nn2)cc1; X7 = Cc1cccc(Cc2cn([C@H]3C[C@@H](C(=O)[*:2])N([*:1])C3)nn2)c1; X8 = O=C([C@@H]1C[C@H](n2cc(Cc3ccc(Cl)cc3)nn2)CN1[*:1])[*:2]; X3 = Cc1ccccc1Cc1cn([C@H]2C[C@@H](C(=O)[*:2])N([*:1])C2)nn1; X5 = O=C([C@@H]1C[C@H](n2cc(Cc3ccc(I)cc3)nn2)CN1[*:1])[*:2]; X14 = O=C([C@@H]1C[C@H](n2cc(Cc3ccccc3)nn2)CN1[*:1])[*:2]; Suc = O=C(CCC(=O)[*:2])[*:1]

Columns and labels:
HOS.T4.R5 cells = settings: highest concentrations used 100 μM, 24 h post-exposure
Protocol: cPTs 36 and 37 were tested for cytotoxicity in vitro with HOS.T4.R5 cells. The latter were seeded at […] per well and incubated with peptides as described elsewhere herein for the infection inhibition assays. Cell viability was determined using the tetrazolium salt premix reagent WST-1 from TaKaRa Bio, Inc., by following the manufacturer's protocol. The formazan product was measured 24 h post-exposure using a microplate reader (Molecular Devices) at an absorbance wavelength of 450 nm.

wild type gp120 YU-2 = molecular target: T1, wild type gp120 YU-2 (Human immunodeficiency virus type 1 group M subtype B, UniProt P35961); assay: Isothermal titration calorimetry binding to gp120; parameters: species or system HIV-1
T1 construct: into 30 μM of YU2 full-length gp120 at 25° C; made in house; host or cells: HEK 293F
Protocol: FIGS. 9A-9C illustrate cPT binding and thermodynamic profile of monomeric wild type gp120 YU-2 for cPTs 3 (FIGS. 9A and 9C) and 36 (FIGS. 9B and 9C). Compound solution, 390 μM (for 3) or 200 μM (for 36), was titrated in 8 μL steps into 30 μM of YU2 full-length gp120 at 25° C. in the reaction chamber of a VP-ITC instrument using 1×PBS buffer at pH 7.3. The resulting heat changes were integrated, and the values obtained were fitted to a quadratic binding equation (one site binding model).
cPT dissociation constants were determined at 25° C. on a VP-Isothermal Titration calorimeter (VP-ITC) system (MicroCal™, GE Healthcare, Freiburg). 200 μM (for 36) or 390 μM (for 3) compound solutions were in 8 μL steps titrated into 30 μM of wild type gp120 YU-2 at 25° C. using 1×PBS buffer at pH 7.3. The resulting heat change upon injection was integrated over a time range of 300 sec, and the obtained values were fitted to a standard single-site binding model using ORIGIN®.

[1] = read-out: HIV-1Bal.01 infection inhibition IC50, HIV-1Bal.01 pseudovirus, HOS.T4.R5 cells
[2] = read-out: HIV-1 IC50, HIV-1Bal.01 infection inhibition, Table 1

Compound	IC50 (HIV-1Bal.01; [1])	IC50 (HIV-1Bal.01; [2]) [nM]	also measured
CC[C@H](C)[C@@H]1NC(=O)[C@H](CC(N)=O)NC(=O)[C@@H](N)CC(=O)NCCCC[C@@H](C(N)=O)NC(=O)[C@H](Cc2c[nH]c3ccccc23)NC(=O)[C@@H]2C[C@H](n3cc(Cc4cc(C)cc(C)c4)nn3)CN2C1=O [cPT 28] (H-DNI[X19]WK-NH2; lactam 1-6 (inferred); N-terminus and C-terminus assumed)	2000 nM	–	–
CC[C@H](C)[C@@H]1NC(=O)[C@H](CC(N)=O)NC(=O)[C@@H](N)CC(=O)NCCCC[C@@H](C(N)=O)NC(=O)[C@H](Cc2c[nH]c3ccccc23)NC(=O)[C@@H]2C[C@H](n3cc(Cc4ccc(Cl)cc4)nn3)CN2C1=O [compound 31] (H-DNI[X8]WK-NH2; lactam 1-6)	~1800 nM	1800 ± 500	–
CC[C@H](C)[C@@H]1NC(=O)[C@H](CC(N)=O)NC(=O)[C@@H](N)CC(=O)NCCCC[C@@H](C(N)=O)NC(=O)[C@H](Cc2c[nH]c3ccccc23)NC(=O)[C@@H]2C[C@H](n3cc(Cc4ccc(C)c(C)c4)nn3)CN2C1=O [cPT 29] (H-DNI[X20]WK-NH2; lactam 1-6 (inferred); N-terminus and C-terminus assumed)	8000 nM	–	–
CC[C@H](C)[C@@H]1NC(=O)[C@H](CC(N)=O)NC(=O)[C@@H](N)CC(=O)NCCCC[C@@H](C(N)=O)NC(=O)[C@H](Cc2c[nH]c3ccccc23)NC(=O)[C@@H]2C[C@H](n3cc(Cc4ccc(Cl)c(F)c4)nn3)CN2C1=O [cPT 32] (H-DNI[X12]WK-NH2; lactam 1-6)	~7300 nM	7300 ± 740	–
CC[C@H](C)[C@@H]1NC(=O)[C@H](CC(N)=O)NC(=O)[C@@H](N)CC(=O)NCCCC[C@@H](C(N)=O)NC(=O)[C@H](Cc2c[nH]c3ccccc23)NC(=O)[C@@H]2C[C@H](n3cc(Cc4ccc(C)cc4C)nn3)CN2C1=O [cPT 27] (H-DNI[X11]WK-NH2; lactam 1-6 (inferred); N-terminus and C-terminus assumed)	~302 nM	302 ± 50	–
CC[C@H](C)[C@@H]1NC(=O)[C@H](CC(N)=O)NC(=O)CCC(=O)NCCCC[C@@H](C(N)=O)NC(=O)[C@H](Cc2c[nH]c3ccccc23)NC(=O)[C@@H]2C[C@H](n3cc(-c4ccc(-c5cccs5)cc4)nn3)CN2C1=O [compound 38] (NI[X1]WK-NH2; linker N-5 via Suc)	~882 nM and 882 nM	–	fold decrease in potency compared to 36 (HIV-1Bal.01; infection inhibition): about 8 fold
CC[C@H](C)[C@@H]1NC(=O)[C@H](CC(N)=O)NC(=O)[C@@H](N)CC(=O)NCCCC[C@@H](C(N)=O)NC(=O)[C@H](Cc2c[nH]c3ccccc23)NC(=O)[C@@H]2C[C@H](n3cc(-c4ccc(C(C)C)cc4)nn3)CN2C1=O [compound 21] (H-DNI[X16]WK-NH2; lactam 1-6)	~900 nM	900 ± 45	–
CC[C@H](C)[C@@H]1NC(=O)[C@H](CC(N)=O)NC(=O)[C@@H](N)CC(=O)NCCCC[C@@H](C(N)=O)NC(=O)[C@H](Cc2c[nH]c3ccccc23)NC(=O)[C@@H]2C[C@H](n3cc(Cc4ccccc4)nn3)CN2C1=O [compound 19] (H-DNI[X14]WK-NH2; lactam 1-6)	~438 nM	438 ± 12	–
CC[C@H](C)[C@@H]1NC(=O)[C@H](CC(N)=O)NC(=O)[C@@H](N)CC(=O)NCCCC[C@@H](C(N)=O)NC(=O)[C@H](Cc2c[nH]c3ccccc23)NC(=O)[C@@H]2C[C@H](n3cc(-c4ccc(-c5cccs5)s4)nn3)CN2C1=O [compound 37] (H-DNI[X6]WK-NH2; lactam 1-6)	405 nM	–	cytotoxicity (cell viability) (HOS.T4.R5 cells): no cytotoxicity was detected
CC[C@H](C)[C@@H]1NC(=O)[C@H](CC(N)=O)NC(=O)[C@@H](N)CC(=O)NCCCC[C@@H](C(N)=O)NC(=O)[C@H](Cc2c[nH]c3ccccc23)NC(=O)[C@@H]2C[C@H](n3cc(Cc4ccc(C)cc4)nn3)CN2C1=O [cPT 24] (H-DNI[X10]WK-NH2; lactam 1-6 (inferred); N-terminus and C-terminus assumed)	~180 nM	180 ± 9	–
CC[C@H](C)[C@@H]1NC(=O)[C@H](CC(N)=O)NC(=O)[C@@H](N)CC(=O)NCCCC[C@@H](C(N)=O)NC(=O)[C@H](Cc2c[nH]c3ccccc23)NC(=O)[C@@H]2C[C@H](n3cc(Cc4ccccc4C)nn3)CN2C1=O [cPT 25] (H-DNI[X3]WK-NH2; lactam 1-6 (inferred); N-terminus and C-terminus assumed)	~5100 nM	5100 ± 220	–
CC[C@H](C)[C@@H]1NC(=O)[C@H](CC(N)=O)NC(=O)[C@@H](N)CC(=O)NCCCC[C@@H](C(N)=O)NC(=O)[C@H](Cc2c[nH]c3ccccc23)NC(=O)[C@@H]2C[C@H](n3cc(-c4ccc(C(C)(C)C)cc4)nn3)CN2C1=O [compound 22] (H-DNI[X15]WK-NH2; lactam 1-6)	~350 nM	350 ± 25	–
CC[C@H](C)[C@@H]1NC(=O)[C@H](CC(N)=O)NC(=O)[C@@H](N)CC(=O)NCCCC[C@@H](C(N)=O)NC(=O)[C@H](Cc2c[nH]c3ccccc23)NC(=O)[C@@H]2C[C@H](n3cc(C4C5CC6CC(C5)CC4C6)nn3)CN2C1=O (stereo partly shown) [compound 18] (H-DNI[X4]WK-NH2; lactam 1-6)	~1300 nM	1400 ± 200	–
CC[C@H](C)[C@@H]1NC(=O)[C@H](CC(N)=O)NC(=O)[C@@H](N)CC(=O)NCCCC[C@@H](C(N)=O)NC(=O)[C@H](Cc2c[nH]c3ccccc23)NC(=O)[C@@H]2C[C@H](n3cc(Cc4ccc(I)cc4)nn3)CN2C1=O [cPT 33] (H-DNI[X5]WK-NH2; lactam 1-6)	~6000 nM	6000 ± 450	–
CCc1ccc(-c2cn([C@H]3C[C@H]4C(=O)N[C@@H](Cc5c[nH]c6ccccc56)C(=O)N[C@H](C(N)=O)CCCCNC(=O)C[C@H](N)C(=O)N[C@@H](CC(N)=O)C(=O)N[C@@H]([C@@H](C)CC)C(=O)N4C3)nn2)cc1 [compound 20] (H-DNI[X9]WK-NH2; lactam 1-6)	~1200 nM	1200 ± 500	–
CC[C@H](C)[C@@H]1NC(=O)[C@H](CC(N)=O)NC(=O)[C@@H](N)CC(=O)NCCCC[C@@H](C(N)=O)NC(=O)[C@H](Cc2c[nH]c3ccccc23)NC(=O)[C@@H]2C[C@H](n3cc(Cc4cccc(C)c4)nn3)CN2C1=O [cPT 26] (H-DNI[X7]WK-NH2; lactam 1-6 (inferred); N-terminus and C-terminus assumed)	~220 nM	220 ± 42	–
CC[C@H](C)[C@@H]1NC(=O)[C@H](CC(N)=O)NC(=O)[C@@H](N)CC(=O)NCCCC[C@@H](C(N)=O)NC(=O)[C@H](Cc2c[nH]c3ccccc23)NC(=O)[C@@H]2C[C@H](n3cc(-c4ccc(-c5ccccc5)cc4)nn3)CN2C1=O [compound 23] (H-DNI[X18]WK-NH2; lactam 1-6)	269 nM	–	–
CC[C@H](C)[C@@H]1NC(=O)[C@H](CC(N)=O)NC(=O)[C@@H](N)CC(=O)NCCCC[C@@H](C(N)=O)NC(=O)[C@H](Cc2c[nH]c3ccccc23)NC(=O)[C@@H]2C[C@H](n3cc(-c4cc5ccccc5cn4)nn3)CN2C1=O [compound 30] (H-DNI[X13]WK-NH2; lactam 1-6)	~5000 nM	5000 ± 850	–
CC[C@H](C)[C@@H]1NC(=O)[C@H](CC(N)=O)NC(=O)[C@@H](N)CC(=O)NCCCC[C@@H](C(N)=O)NC(=O)[C@H](Cc2c[nH]c3ccccc23)NC(=O)[C@@H]2C[C@H](n3cc([C]45[CH]6[CH]7[CH]8[CH]4[Fe]786549%10%11[CH]5[CH]4[CH]9[CH]%10[CH]5%11)nn3)CN2C1=O (stereo partly shown) [cPT 3] (H-DNI[X2]WK-NH2; lactam 1-6)	–	–	ΔH (wild type gp120 YU-2; ITC, 25° C.): -5.96 kcal/mol and -5.96 ± 0.13 kcal/mol; ΔS (wild type gp120 YU-2; ITC, 25° C.): 0.00922 kcal/mol; −TΔS (wild type gp120 YU-2; ITC, 25° C.): -2.75 kcal/mol
CC[C@H](C)[C@@H]1NC(=O)[C@H](CC(N)=O)NC(=O)[C@@H](N)CC(=O)NCCCC[C@@H](C(N)=O)NC(=O)[C@H](Cc2c[nH]c3ccccc23)NC(=O)[C@@H]2C[C@H](n3cc(C4=CC=C[CH]4[Fe][CH]4C=CC=C4)nn3)CN2C1=O (stereo partly shown) [cPT 3] (H-DNI[X17]WK-NH2; lactam 1-6)	–	–	Kd (wild type gp120 YU-2): 415 nM
